Consider two compounds from ChEMBL document CHEMBL4602696, “LMP2 Inhibitors as a Potential Treatment for Alzheimer's Disease” (J Med Chem, 2020).

Calls of active or inactive are those of the source. The calls are words filed in the database; no cut-off is given here.

Series [1] addresses T1, Proteasome subunit beta type-9 (Homo sapiens) (UniProt P28065).
T1 sequence (whole entry): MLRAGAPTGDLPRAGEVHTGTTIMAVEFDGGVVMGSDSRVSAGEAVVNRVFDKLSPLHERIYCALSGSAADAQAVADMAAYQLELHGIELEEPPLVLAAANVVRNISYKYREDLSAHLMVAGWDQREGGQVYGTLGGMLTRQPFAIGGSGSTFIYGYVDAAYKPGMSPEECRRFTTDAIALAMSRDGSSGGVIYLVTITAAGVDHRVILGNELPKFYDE
Kind of series: Inhibition of LMP2 in human ARPE-19 cells assessed as suppression of TNFalpha-stimulated EMT by measuring vimentin expression after 24 hrs by immunofluorescence analysis. The series is classed as cell-based.

Series [2] deals with T2, Proteasome subunit beta type-8 (Homo sapiens, UniProt P28062).
T2 sequence (P28062 whole entry): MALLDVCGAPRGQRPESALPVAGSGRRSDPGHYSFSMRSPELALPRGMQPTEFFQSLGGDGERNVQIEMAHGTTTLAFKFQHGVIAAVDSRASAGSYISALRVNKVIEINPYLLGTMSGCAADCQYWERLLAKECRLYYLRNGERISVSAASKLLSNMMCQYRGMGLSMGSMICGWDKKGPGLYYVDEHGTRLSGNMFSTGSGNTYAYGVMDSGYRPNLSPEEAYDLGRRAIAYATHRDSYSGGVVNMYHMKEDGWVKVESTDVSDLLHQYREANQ
Nature of the series: Inhibition of LMP7 in human 20S immunoproteasome using Ac-ANW-AMC as substrate after 1 hr by fluorescence based microplate reader analysis.

The target of series [3] is T3, Proteasome Macropain subunit MB1 (Homo sapiens, UniProt P28074).
T3 sequence (P28074 whole entry): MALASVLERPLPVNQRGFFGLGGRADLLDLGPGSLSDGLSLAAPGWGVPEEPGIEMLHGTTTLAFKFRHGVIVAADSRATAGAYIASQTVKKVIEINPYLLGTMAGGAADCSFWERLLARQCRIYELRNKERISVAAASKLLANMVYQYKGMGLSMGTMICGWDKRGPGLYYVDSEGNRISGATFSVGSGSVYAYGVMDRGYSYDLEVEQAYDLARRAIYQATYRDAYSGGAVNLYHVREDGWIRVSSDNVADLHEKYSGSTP
Nature of the series: Inhibition of Beta5 in human 20S […] usingAc-WLA-AMC as substrate after 1 hr by fluorescence based microplate reader analysis.

The next series has as its system WI-38. Nature of the series: Cytotoxicity against human WI38 cells up to 10 uM after 72 hrs by CellTiter 96 aqueous one solution reagent based assay. The class given is cell-based. The conditions noted are these: wi-38, 72 h.
Series [4] concerns the target T1, Proteasome subunit beta type-9 (Homo sapiens). Nature of the series: Inhibition of LMP2 in human ARPE-19 cells assessed as suppression of TNFalpha-stimulated EMT by measuring E-cadherin expression after 24 hrs by immunofluorescence analysis. The class given is cell-based.
In series [5] the target is T4, Proteasome subunit beta type-9 (Homo sapiens, UniProt P28065).
T4 sequence (P28065 whole entry): T1 sequence (whole entry)
Nature of the series: Inhibition of LMP2 in human 20S immunoproteasome using Ac-PAL-AMC as substrate after 1 hr by fluorescence based microplate reader analysis.

Series [6] can be described thus: Inhibition of LMP7/Beta 5 subunit chymotrypsin-like activity in human RPM18226 cell lysates using Suc-LLVY-AMC as substrate after 1 hr by fluorescence based microplate reader analysis. The series is classed as cell-free. The settings on record: rpmi-8226.
A short description of series [7]: Toxicity in transgenic Tg2576 ICR mouse at 10 mg/kg, iv administered twice per week for 3 weeks. The series is classed as organism-based. The settings on record: in vivo, 504 h.
The subject of series [8] is Mus musculus. Nature of the series: Antialzheimer activity in transgenic Tg2576 ICR mouse assessed as reduction in IL-1alpha level in serum at 10 mg/kg, iv administered twice per week for 3 weeks by ELISA. The class given is functional, organism-based. (In an ELISA, binding on a coated surface is turned into a signal by an enzyme label.)
The target in series [9] is T1, Proteasome subunit beta type-9 (Homo sapiens). Kind of series: Inhibition of LMP2 subunit in human DLD1 cells over expressing ABCB1 at 1 uM using Ac-PAL-AMC as substrate incubated for 4 hrs. The class given is cell-based. The conditions noted are these: DLD-1.
The next series has as its system RPMI-8226. Nature of the series: Cytotoxicity against human RPM18226 cells up to 10 uM after 72 hrs by CellTiter 96 aqueous one solution reagent based assay. The class given is cell-based. The conditions noted are these: rpmi-8226, 72 h.
In series [10] the test system is BV-2. Kind of series: Cytotoxicity against mouse BV2 cells up to 10 uM after 72 hrs by CellTiter 96 aqueous one solution reagent based assay. The settings on record: bv-2, 72 h. The class given is cell-based.
Series [11] relates to Mus musculus. Kind of series: Antialzheimer activity in transgenic Tg2576 ICR mouse at 10 mg/kg, iv administered twice per week for 3 weeks by Morris water maze test. The series is classed as functional, organism-based.
The subject of series [12] is BV-2. Kind of series: Antiinflammatory activity against mouse BV2 cells assessed as reduction in LPS-induced IL-1alpha release after 24 hrs by ELISA. The class given is functional, cell-based.
Series [13] has as its system Mus musculus. Nature of the series: Antineuroinflammatory activity in APP transgenic Tg2576 mouse assessed as inhibition of retinal pigment epithelium degeneration at 10 mg/kg, iv administered twice per week for 3 weeks by immuno staining based confocal microscopic analysis relative to control. On the set-up: scale not given: the % may be the effect or the level left. The series is classed as functional.

Series [14] concerns the target T1, Proteasome subunit beta type-9 (Homo sapiens). Kind of series: Inhibition of immunoproteasome LMP2 subunit in human DLD1 cells over expressing ABCB1 at 3 uM using Ac-PAL-AMC as substrate incubated for 4 hrs in presence of reversin-121. The series is classed as cell-based. The settings on record: DLD-1.

For the compound `CC(C)C[C@H](NC(=O)[C@H](Cc1ccccc1)NC(=O)[C@@H]1CCCN1C(=O)CNC(=O)c1cnccn1)C(=O)[C@@]1(C)CO1`, the inhibition result in series [1], in [4], in series [9] and in [14] was “Active” each time. Also, the IC50 (as a rule, the point on the concentration scale where inhibition reaches its midpoint) in series [2] was more than 10 µM; in [3], more than 10 µM; in series [5], 0.07 to 0.0806 µM; in [6] it was more than 10 µM. Besides, the Activity result is “Non-Toxic” with WI-38; “Non-Toxic” in [7]; “Non-Toxic” in the series on RPMI-8226; “Non-Toxic” in the series with BV-2 [10]; 100% with Mus musculus [13]. Besides, the result in the series with Mus musculus [8], with Mus musculus [11] and in the series with BV-2 [12] was Active.
For the compound `C[C@]1(C(=O)[C@H](Cc2ccccc2)NC(=O)[C@H](CO)NC(=O)c2cccc(=O)[nH]2)CO1`, the IC50 in series [2] is more than 10 µM; in [3], more than 10 µM; in [5], 0.158 to 0.162 µM; in series [6] it was more than 10 µM. Moreover, the inhibition entry in series [9] was “inactive”. Also, the inhibition entry in [14] is “Active”.
